Data on ten compounds can be found in ChEMBL document CHEMBL3046900, “Synthesis and Fungitoxic Activity of N-Cinnamoyl--Amino Acid Esters” (2000).

Format in all cases: functional
Assay [1] has as its system Athelia rolfsii. The experiment in a line: Fungitoxic activity against Athelia rolfsii assessed as mycelial growth inhibition at 10 ppm after 3 days. The note with it: Agroathelia rolfsii, 72 h; read-out: GI.
The subject of assay [2] is Pythium. The experiment in a line: Fungitoxic activity against Pythium sp. assessed as mycelial growth inhibition at 10 ppm after 3 days. The note with it: 72 h, read-out: GI.
The test system of assay [3] is Athelia rolfsii. Put plainly: Fungitoxic activity against Athelia rolfsii assessed as mycelial growth inhibition at 100 ppm after 3 days. The note with it: Agroathelia rolfsii, 72 h; read-out: GI.
Assay [4] has as its system Pythium. The experiment in a line: Fungitoxic activity against Pythium sp. assessed as mycelial growth inhibition at 100 ppm after 3 days. The note with it: 72 h, read-out: GI.

As for `COC(=O)[C@H](Cc1ccccc1)NC(=O)/C=C/c1ccc(C(C)C)cc1`, the inhibition of growth at 10 ppm with Athelia rolfsii [1] came out at 28%; with Pythium [2] it was 8%. The figures for the inhibition of growth at 100 ppm with Athelia rolfsii [3] and with Pythium [4] were 52% and 57%, respectively.
Consider `CC(C)OP(=O)(OC(C)C)SCc1ccccc1` [IPROBENFOS], for which the values for the inhibition of growth at 10 ppm in the assay on Athelia rolfsii [1] and in the assay on Pythium [2] were 69% and 42%, respectively. The inhibition of growth at 100 ppm in the assay with Athelia rolfsii [3] came to 100%; in the assay with Pythium [4], 89%.
`CC(C)C[C@H](NC(=O)/C=C/c1ccc(Cl)cc1)C(=O)OC(C)C`: the results for the inhibition of growth at 10 ppm in the assay on Athelia rolfsii [1] and in the assay with Pythium [2] were 32% and 7%, respectively. For the same compound, the figures for the inhibition of growth at 100 ppm in the assay with Athelia rolfsii [3] and with Pythium [4] were 89% and 70%, respectively.
For the compound `CC[C@H](C)[C@H](NC(=O)/C=C/c1ccc(C(C)C)cc1)C(=O)OC`, the inhibition of growth at 10 ppm in the assay on Athelia rolfsii [1] was 41%; in the assay on Pythium [2] it was 26%. Moreover, the inhibition of growth at 100 ppm was determined as 55% with Athelia rolfsii [3] and 65% in the assay on Pythium [4].
Taken in the same sequence, the figures for `CCCOC(=O)CNC(=O)/C=C/c1ccc(C(C)C)cc1` were 23%, 24%, 74% and 63%.
As for `CC[C@H](C)[C@H](NC(=O)/C=C/c1ccc(Cl)cc1)C(=O)OC`, the inhibition of growth at 10 ppm came out at 20% in the assay with Athelia rolfsii [1] and 0% with Pythium [2]. For the same compound, the inhibition of growth at 100 ppm came to 65% with Athelia rolfsii [3] and 51% in the assay on Pythium [4].
As for `CCCOC(=O)[C@H](C)NC(=O)/C=C/c1ccc(Cl)cc1Cl`, the inhibition of growth at 10 ppm in the assay on Athelia rolfsii [1] came to 14%; in the assay with Pythium [2], 0%. For the same compound, the inhibition of growth at 100 ppm with Athelia rolfsii [3] came out at 51%; in the assay with Pythium [4] it was 61%.
In the case of `CC(C)OC(=O)CNC(=O)/C=C/c1ccc(C(C)C)cc1`, the values for the inhibition of growth at 10 ppm in the assay on Athelia rolfsii [1] and with Pythium [2] were 37% and 11%, respectively. Further, the inhibition of growth at 100 ppm in the assay with Athelia rolfsii [3] was 79%; with Pythium [4] it was 70%.
Taken in the same sequence, the figures for `COC(=O)[C@@H](NC(=O)/C=C/c1ccc(Cl)cc1Cl)C(C)C` were 24%, 10%, 63% and 67%.
For `CCOC(=O)[C@@H](NC(=O)/C=C/c1ccc(C(C)C)cc1)C(C)C`, the results for the inhibition of growth at 10 ppm in the assay with Athelia rolfsii [1] and with Pythium [2] were 27% and 10%, respectively. Also, the values for the inhibition of growth at 100 ppm in the assay on Athelia rolfsii [3] and in the assay with Pythium [4] were 51% and 67%, respectively.
